Data published in the NIST ThermoML archive (doi:10.1021/je200252c).
Numbers after ± are expanded uncertainties.

Assay: Molar enthalpy of transition or fusion
Conditions: Crystal; DSC

SMILES: c1ccc2c(c1)OP1(=NP3(=NP4(=N1)Oc1ccccc1O4)Oc1ccccc1O3)O2 [tris(o-phenylenedioxy)cyclotriphosphazene]
- Molar enthalpy of transition or fusion: 19.5 ± 0.6 kJ/mol
